Test results: US20040049086A1, “Diphenol and process for producing the same” (priority 2001, published 2004)

SMILES	melting point [°C]
Cc1cc(C2CCC(c3ccc(O)cc3)CC2)ccc1O (stereo not drawn) [Example 1 of Example B, 4-(4′-(4″-hydroxyphenyl)cyclohexyl)-2-methyl-1-hydroxybenzene]	159
Cc1cc(-c2ccc(-c3ccc(O)cc3)cc2)ccc1O [Example 1 of Example C, 4-hydroxy-3″-methyl-4″-hydroxy-p-terphenyl]	251.4
Cc1cc(-c2ccc(-c3ccc(O)cc3)cc2)cc(C)c1O [Example 2 of Example C, 4-hydroxy-3″,5″-dimethyl-4″-hydroxy-p-terphenyl]	231

Continued, values first:

melting point [°C]	SMILES
201	Cc1cc(C2=CCC(c3ccc(O)cc3)CC2)ccc1O (stereo not drawn) [Example 2 of Example A, 1-(3-methyl-4-hydroxyphenyl)-4-(4-hydroxyphenyl)-1-cyclohexene]
224	Cc1cc(C2=CCC(c3ccc(O)cc3)CC2)cc(C)c1O (stereo not drawn) [Example 5 of Example A, 1-(3,5-dimethyl-4-hydroxyphenyl)-4-(4-hydroxyphenyl)-1-cyclohexene]
188	CC(C)(C)c1cc(C2=CCC(c3ccc(O)cc3)CC2)ccc1O (stereo not drawn) [Example 4 of Example A, 1-(3-t-butyl-4-hydroxyphenyl)-4-(4-hydroxyphenyl)-1-cyclohexene]
